Source: ChEMBL document CHEMBL1201862, “PubChem BioAssay data set” (2004)
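Step 1: Grow cells in 96-well plates. Step 2: Expose to compound for 48 hours at 5 concentrations. Step 3: Interpolate endpoints linearly; if unreached, use highest concentration. The concentration for 50% growth inhibition is given as GI50.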 Calls of active or inactive are those of the source. No stated cut-off is given here; in the data, active = GI50 up to about 1.1 µM and inactive = higher.

Columns and labels:
Assay in all cases: inhibition of tumour cell growth, NCI panel, 48 h
[1] = test system: UO-31
[2] = test system: SNB-75
[3] = test system: NCI-H460
[4] = test system: SF-268
[5] = test system: NCI-H23
[6] = test system: U-251
[7] = test system: SN12C
[8] = test system: A498
[9] = test system: SK-MEL-28
[10] = test system: Hs-578T
[11] = test system: DU-145
[12] = test system: Malme-3M
[13] = test system: ACHN
[14] = test system: OVCAR-3
[15] = test system: SW-620
[16] = test system: BT-549
[17] = test system: PC-3
[18] = test system: NCI-H226
[19] = test system: HCT-116
[20] = test system: MCF7

Compound: CC(CCC(=O)O)C(=O)O (stereo not given)
- GI50 [1]: > 100 µM (inactive)
- GI50 [2]: > 100 µM (inactive)
- GI50 [3]: > 100 µM (inactive)
- GI50 [4]: > 100 µM (inactive)
- GI50 [5]: > 100 µM (inactive)
- GI50 [6]: > 100 µM (inactive)
- GI50 [7]: > 100 µM (inactive)
- GI50 [8]: > 100 µM (inactive)
- GI50 [9]: > 100 µM (inactive)
- GI50 [10]: > 100 µM (inactive)
- GI50 [11]: > 100 µM (inactive)
- GI50 [12]: > 100 µM (inactive)
- GI50 [13]: > 100 µM (inactive)
- GI50 [14]: > 100 µM (inactive)
- GI50 [15]: > 100 µM (inactive)
- GI50 [16]: > 100 µM (inactive)
- GI50 [17]: > 100 µM (inactive)
- GI50 [18]: > 100 µM (inactive)
- GI50 [19]: > 100 µM (inactive)
- GI50 [20]: > 100 µM (inactive)

Compound: CCc1nc2ccc(NCCN(C)C)c3c(=O)c4ccccc4n1c23
- GI50 [1]: 1.24 µM (inactive)
- GI50 [2]: 3 µM (inactive)
- GI50 [3]: 0.23 µM (active)
- GI50 [4]: 0.711 µM (active)
- GI50 [5]: 1.16 µM (inactive)
- GI50 [6]: 0.796 µM (active)
- GI50 [7]: 0.404 µM (active)
- GI50 [8]: 2.54 µM (inactive)
- GI50 [9]: 2.44 µM (inactive)
- GI50 [10]: 1.78 µM (inactive)
- GI50 [11]: 0.656 µM (active)
- GI50 [12]: 1.61 µM (inactive)
- GI50 [13]: 0.417 µM (active)
- GI50 [14]: 0.979 µM (active)
- GI50 [15]: 0.305 µM (active)
- GI50 [16]: 4.61 µM (inactive)
- GI50 [17]: 0.8 µM (active)
- GI50 [18]: 1.07 µM (active)
- GI50 [19]: 0.337 µM (active)
- GI50 [20]: 2.11 µM (inactive)

Compound: NCCNCCCNC(=O)c1cc(-c2ccccc2)nc2ccccc12
- GI50 [1]: 46 µM (inactive)
- GI50 [2]: > 10 µM (inactive)
- GI50 [3]: 35.2 µM (inactive)
- GI50 [4]: 26.1 µM (inactive)
- GI50 [5]: 30.6 µM (inactive)
- GI50 [6]: 17.6 µM (inactive)
- GI50 [7]: 40.8 µM (inactive)
- GI50 [8]: 41.7 µM (inactive)
- GI50 [9]: 16.7 µM (inactive)
- GI50 [10]: 48.3 µM (inactive)
- GI50 [11]: > 100 µM (inactive)
- GI50 [12]: 16.8 µM (inactive)
- GI50 [13]: 38.1 µM (inactive)
- GI50 [14]: > 100 µM (inactive)
- GI50 [15]: 34 µM (inactive)
- GI50 [16]: 55.8 µM (inactive)
- GI50 [17]: 51.3 µM (inactive)
- GI50 [18]: > 100 µM (inactive)
- GI50 [19]: 35.6 µM (inactive)
- GI50 [20]: 45.4 µM (inactive)

Compound: COc1ccccc1/C=C/c1cnccn1
- GI50 [1]: > 10 µM (inactive)
- GI50 [2]: > 10 µM (inactive)
- GI50 [3]: > 10 µM (inactive)
- GI50 [4]: > 10 µM (inactive)
- GI50 [5]: > 10 µM (inactive)
- GI50 [6]: > 10 µM (inactive)
- GI50 [7]: > 10 µM (inactive)
- GI50 [8]: > 10 µM (inactive)
- GI50 [9]: > 10 µM (inactive)
- GI50 [10]: > 10 µM (inactive)
- GI50 [11]: > 10 µM (inactive)
- GI50 [12]: > 10 µM (inactive)
- GI50 [13]: > 10 µM (inactive)
- GI50 [14]: > 10 µM (inactive)
- GI50 [15]: > 10 µM (inactive)
- GI50 [16]: > 10 µM (inactive)
- GI50 [17]: > 10 µM (inactive)
- GI50 [18]: > 10 µM (inactive)
- GI50 [19]: > 10 µM (inactive)
- GI50 [20]: > 10 µM (inactive)

Compound: COC(=O)C12C3C4C1C1C2C3C41C(=O)NC(C)(C)CC(=O)O (stereo not given)
- GI50 [1]: > 100 µM (inactive)
- GI50 [2]: > 100 µM (inactive)
- GI50 [3]: 20.7 µM (inactive)
- GI50 [4]: > 100 µM (inactive)
- GI50 [5]: > 100 µM (inactive)
- GI50 [6]: > 100 µM (inactive)
- GI50 [7]: > 100 µM (inactive)
- GI50 [8]: > 100 µM (inactive)
- GI50 [9]: > 100 µM (inactive)
- GI50 [10]: > 100 µM (inactive)
- GI50 [11]: > 100 µM (inactive)
- GI50 [12]: > 100 µM (inactive)
- GI50 [13]: > 100 µM (inactive)
- GI50 [14]: > 100 µM (inactive)
- GI50 [15]: > 100 µM (inactive)
- GI50 [16]: > 100 µM (inactive)
- GI50 [17]: > 100 µM (inactive)
- GI50 [18]: > 100 µM (inactive)
- GI50 [19]: > 100 µM (inactive)
- GI50 [20]: > 100 µM (inactive)
